{"source": "patent US20080279866A1", "about": "“Induction of immunosuppression by inhibition of ATM” (The Brigham and Women's Hospital, Inc., priority 2006, published 2008)", "key": {"[1]": {"tested_on": "C57BL/6 T cells", "assay": "Stimulation of T cells with anti-CD3 and CD28 in the presence of KU-55933 (annexin-V/CFSE flow cytometry)", "format": "cell-based, mouse", "method": "Cells were then labeled for 20 minutes with 2 μM 5(6)-Carboxyfluorescein diacetate N-succinimidyl ester (CFSE, Sigma-Aldrich) in Hank's balanced salt solution (HBSS, Mediatech, Herndon, Va.). Cells were plated at a concentration of 2-5×10^6/ml in Dulbecco's modified eagle's medium (DMEM (Mediatech) supplemented with 15% heat-inactivated fetal calf serum (Sigma-Aldrich, St. Louis, Mo.), penicillin (100 U/ml), streptomycin (100 μg/ml), 2 mM L-glutamine, 10 mM Hepes, 0.1 mM nonessential amino acids, 1 mM sodium pyruvate (Mediatech) (complete DMEM). Cells were treated with 1 μg/ml anti-CD3 antibody (2C11 (30)) and 1 μg/ml anti-CD28 antibody (37.51, Gross, et al., J. Immunol. 149:380 (1992)). Cells were cultured at 37 C, 5% CO2 for the indicated time. For studies of Atm−/− T cell proliferation in response to mitogens, purified T cells were cultured with 2 μg/ml Concanavalin A or 10 ng/ml PMA and 1 μg/m ionomycin.\nStimulation of T cells in the Presence of KU-55933: T cells were purified from C57BL/6 mice (Jackson Laboratories) and re-suspended at 1.5×10^6 cells/ml in complete DMEM with 1 μg/10^6 cells anti-CD3 and CD28 and the indicated concentration of KU-55933 (KuDos Pharmaceuticals) or the same volume of DMSO (Sigma-Aldrich). Some cultures were in addition treated with 4 mM N-acetyl cysteine (Sigma-Aldrich).\nFlow Cytometry: Cells were harvested, washed in HBSS and stained with Annexin-V phycoerythrin (BD Biosciences), or Annexin V-biotin (R&D Systems) in addition to streptavidin conjugated phycoerythrin according to the manufacturer's instructions. Cells were then stained with anti-CD4-APC (RM4-5, BD Biosciences) or anti-CD8-APC (53-6.7 BD Biosciences) and 7-actinomycin D (Sigma-Aldrich) or propidium iodide (Sigma-Aldrich). All analysis was performed using. FloJo software (TreeStar Inc)."}, "[2]": {"tested_on": "alloreactive T cells", "assay": "Cytokine production of alloreactive T cells stimulated with alloantigen", "format": "cell-based", "settings": "treated with ATM inhibiting agent in addition to alloantigen; preliminary data"}, "[3]": {"tested_on": "other PI-3 kinase-like kinase family members", "settings": "cited from earlier work"}, "[4]": {"tested_on": "graft vs. host disease (GVHD)", "assay": "GVHD after BMT: lethally irradiated Balb/c mice given C57BL/6 bone marrow and treated splenocytes", "format": "in vivo, mouse", "method": "To test this, Balb/c mice were lethally irradiated one day prior to BMT with C57BL/6 bone marrow. 48 Hours after BMT, mice received splenocytes treated with allogeneic stimulators, allogeneic stimulators and KU55933, or no stimulators and KU55933."}, "[5]": {"tested_on": "ATM targets including p53, H2AX and NBS1", "settings": "cited from earlier work"}, "[6]": {"tested_on": "C57BL/6 T cells", "assay": "Stimulation of T cells with anti-CD3 and CD28 in the presence of caffeine (annexin-V/CFSE flow cytometry)", "format": "cell-based, mouse", "method": "Cells were then labeled for 20 minutes with 2 μM 5(6)-Carboxyfluorescein diacetate N-succinimidyl ester (CFSE, Sigma-Aldrich) in Hank's balanced salt solution (HBSS, Mediatech, Herndon, Va.). Cells were plated at a concentration of 2-5×10^6/ml in Dulbecco's modified eagle's medium (DMEM (Mediatech) supplemented with 15% heat-inactivated fetal calf serum (Sigma-Aldrich, St. […] Cells were treated with 1 μg/ml anti-CD3 antibody (2C11 (30)) and 1 μg/ml anti-CD28 antibody (37.51, Gross, et al., J. Immunol. 149:380 (1992)). […] For studies of Atm−/− T cell proliferation in response to mitogens, purified T cells were cultured with 2 μg/ml Concanavalin A or 10 ng/ml PMA and 1 μg/m ionomycin. Stimulation of T cells in the Presence of Caffeine: […] Some cultures were, in addition, treated with 2 mM N-acetyl cysteine (Sigma-Aldrich). Flow Cytometry: Cells were harvested, washed in HBSS and stained with Annexin-V phycoerythrin (BD Biosciences), or Annexin V-biotin (R&D Systems) in addition to streptavidin conjugated phycoerythrin according to the manufacturer's instructions. Cells were then stained with anti-CD4-APC (RM4-5, BD Biosciences) or anti-CD8-APC (53-6.7 BD Biosciences) and 7-actinomycin D (Sigma-Aldrich) or propidium iodide (Sigma-Aldrich). All analysis was performed using. FloJo software (TreeStar Inc)."}, "[7]": {"tested_on": "Atm deficient T cells", "assay": "Stimulation of Atm deficient T cells with anti-CD3 and CD28 with or without NAC", "format": "cell-based, mouse", "settings": "2 mM NAC", "source_text": "Mice: Heterozygous 129S6/SvEvTac-Atm^tm1-Awb mice […] were purchased from the Jackson Laboratory (Bar Harbor, Me.). An independently generated Atm knockout mouse model was used to confirm our observations (Borghesani, et al., Proc. Nat'l Acad. Sci. USA 97:3336 (2000)). All mice were housed under microisolator conditions in autoclaved cages and were maintained on irradiated feed and autoclaved acidified drinking water. All sentinel mice housed in the same colony were free of viral antibodies. Four- to 6-week-old mice were used in all experiments.\nPurification and Stimulation of T Cells: Splenocytes were harvested from 4-6 week old Atm−/− mice or wild-type littermates bred in our animal facility. In some experiments C57BL/6 mice were used as a source of wild-type T cells. Red blood cells were lysed using ACK lysing buffer (Cambrex, Walkerville, Md.) for 3 minutes at room temperature. In experiments in which T cells were purified, splenocytes were incubated with anti-CD4 (GK1.5, Dialynas, et al., J. Immunol. 131:2445 (1983)) and anti-CD8 (2.43, Sarmiento, et al., J. Immunol. 125:2665 (1980)) antibodies for 30 min at 4° C. Cells were then washed and incubated with magnetic beads conjugated to anti-rat IgG antibody, prior to positive selection by MACS according to the manufacturer's instructions (Miltenyi Biotech, USA Auburn Calif.). […]"}, "[8]": {"molecular_target": "ATM (Homo sapiens, UniProt Q13315)", "sequence (Q13315 whole entry, species assumed)": "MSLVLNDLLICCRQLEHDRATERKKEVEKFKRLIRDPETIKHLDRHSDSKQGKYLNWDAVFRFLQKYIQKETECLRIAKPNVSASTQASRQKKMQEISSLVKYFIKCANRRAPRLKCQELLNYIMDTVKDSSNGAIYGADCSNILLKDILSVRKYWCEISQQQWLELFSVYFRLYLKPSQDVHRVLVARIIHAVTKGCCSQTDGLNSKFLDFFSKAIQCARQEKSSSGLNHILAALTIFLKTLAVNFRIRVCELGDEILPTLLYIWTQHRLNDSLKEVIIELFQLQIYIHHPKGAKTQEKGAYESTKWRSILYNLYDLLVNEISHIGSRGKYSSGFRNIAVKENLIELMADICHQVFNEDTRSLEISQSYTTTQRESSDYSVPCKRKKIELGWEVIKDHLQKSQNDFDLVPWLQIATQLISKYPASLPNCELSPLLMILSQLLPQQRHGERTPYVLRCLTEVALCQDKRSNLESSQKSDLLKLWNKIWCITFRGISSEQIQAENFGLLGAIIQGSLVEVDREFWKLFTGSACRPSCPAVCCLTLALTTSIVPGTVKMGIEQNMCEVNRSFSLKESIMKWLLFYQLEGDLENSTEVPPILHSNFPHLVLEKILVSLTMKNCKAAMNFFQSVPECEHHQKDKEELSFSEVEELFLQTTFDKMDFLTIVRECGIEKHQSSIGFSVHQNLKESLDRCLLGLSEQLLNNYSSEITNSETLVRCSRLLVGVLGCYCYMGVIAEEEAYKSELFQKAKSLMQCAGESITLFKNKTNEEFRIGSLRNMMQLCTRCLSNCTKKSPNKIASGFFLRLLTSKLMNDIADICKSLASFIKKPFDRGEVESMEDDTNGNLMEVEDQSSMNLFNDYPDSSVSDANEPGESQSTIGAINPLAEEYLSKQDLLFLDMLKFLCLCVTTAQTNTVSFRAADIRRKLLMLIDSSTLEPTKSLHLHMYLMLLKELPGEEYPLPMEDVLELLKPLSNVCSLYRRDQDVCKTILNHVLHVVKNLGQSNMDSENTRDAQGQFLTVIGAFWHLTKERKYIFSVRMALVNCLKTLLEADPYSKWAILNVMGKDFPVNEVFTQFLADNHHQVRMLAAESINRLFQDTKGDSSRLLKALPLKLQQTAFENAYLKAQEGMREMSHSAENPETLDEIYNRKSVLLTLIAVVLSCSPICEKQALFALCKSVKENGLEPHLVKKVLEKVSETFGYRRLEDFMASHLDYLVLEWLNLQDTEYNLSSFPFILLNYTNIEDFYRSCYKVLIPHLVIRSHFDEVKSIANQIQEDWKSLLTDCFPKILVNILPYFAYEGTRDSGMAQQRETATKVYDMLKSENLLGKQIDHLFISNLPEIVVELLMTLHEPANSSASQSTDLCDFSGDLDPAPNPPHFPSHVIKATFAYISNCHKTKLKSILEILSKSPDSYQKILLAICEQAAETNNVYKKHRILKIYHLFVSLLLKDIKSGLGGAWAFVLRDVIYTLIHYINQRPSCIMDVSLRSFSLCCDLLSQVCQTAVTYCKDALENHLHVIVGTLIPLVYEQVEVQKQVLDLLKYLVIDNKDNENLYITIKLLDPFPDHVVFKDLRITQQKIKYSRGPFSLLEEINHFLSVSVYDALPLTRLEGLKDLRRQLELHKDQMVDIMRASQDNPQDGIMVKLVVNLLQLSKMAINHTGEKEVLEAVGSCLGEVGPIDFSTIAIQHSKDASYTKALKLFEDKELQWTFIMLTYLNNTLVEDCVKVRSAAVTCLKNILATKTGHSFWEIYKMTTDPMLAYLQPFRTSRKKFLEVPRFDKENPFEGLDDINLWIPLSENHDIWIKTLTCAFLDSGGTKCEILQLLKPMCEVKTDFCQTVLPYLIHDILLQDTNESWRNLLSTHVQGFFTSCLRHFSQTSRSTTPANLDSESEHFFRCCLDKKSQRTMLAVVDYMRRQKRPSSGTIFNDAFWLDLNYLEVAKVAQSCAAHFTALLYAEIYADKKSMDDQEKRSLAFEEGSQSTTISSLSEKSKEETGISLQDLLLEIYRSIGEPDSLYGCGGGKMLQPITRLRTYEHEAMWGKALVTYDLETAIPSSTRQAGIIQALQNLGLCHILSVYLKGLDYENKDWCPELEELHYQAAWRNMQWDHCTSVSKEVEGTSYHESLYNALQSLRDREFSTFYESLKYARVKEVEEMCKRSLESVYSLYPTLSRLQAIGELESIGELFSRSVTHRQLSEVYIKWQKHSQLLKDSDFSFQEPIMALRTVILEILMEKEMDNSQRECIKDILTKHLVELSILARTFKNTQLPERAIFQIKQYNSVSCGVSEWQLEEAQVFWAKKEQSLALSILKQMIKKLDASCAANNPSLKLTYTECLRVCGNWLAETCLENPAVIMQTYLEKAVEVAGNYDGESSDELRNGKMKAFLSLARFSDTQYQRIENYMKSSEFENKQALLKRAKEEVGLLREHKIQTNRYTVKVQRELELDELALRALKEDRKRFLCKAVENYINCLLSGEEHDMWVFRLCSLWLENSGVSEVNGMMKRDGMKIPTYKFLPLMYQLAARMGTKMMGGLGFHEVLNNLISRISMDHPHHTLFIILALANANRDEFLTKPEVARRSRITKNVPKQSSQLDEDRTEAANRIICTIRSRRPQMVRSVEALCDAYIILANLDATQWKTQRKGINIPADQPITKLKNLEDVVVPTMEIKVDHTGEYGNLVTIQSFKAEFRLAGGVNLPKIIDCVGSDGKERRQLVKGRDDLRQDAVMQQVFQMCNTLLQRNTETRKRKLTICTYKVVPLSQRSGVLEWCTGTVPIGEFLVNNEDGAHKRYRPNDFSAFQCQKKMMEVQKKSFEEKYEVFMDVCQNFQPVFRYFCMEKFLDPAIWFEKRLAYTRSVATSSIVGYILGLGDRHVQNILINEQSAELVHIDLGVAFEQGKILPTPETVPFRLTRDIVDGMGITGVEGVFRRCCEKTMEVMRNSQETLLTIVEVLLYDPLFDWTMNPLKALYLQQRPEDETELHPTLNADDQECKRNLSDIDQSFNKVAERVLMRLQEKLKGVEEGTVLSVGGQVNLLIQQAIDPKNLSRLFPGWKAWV", "settings": "cited from earlier work"}, "[9]": {"molecular_target": "ATR (Homo sapiens, UniProt Q13535)", "settings": "3 mM caffeine; cited from earlier work"}, "[10]": {"settings": "C57BL/6 T cells stimulated with anti-CD3 and CD28"}}, "data": [{"compound": "O=c1cc(-c2cccc3c2Sc2ccccc2S3)oc(N2CCOCC2)c1", "note": "[KU-55933, 2-morpholin-4-yl-6-thianthren-1-yl-pyran-4-one]", "values": [{"measurement": "T cell proliferation versus untreated controls", "setting": "[1]; 20 μM KU-55933, 48 and 72 hours after stimulation", "value": "significantly less proliferation"}, {"measurement": "effect on cell viability", "setting": "[1]; 20 μM KU-55933, 24 hours, anti-CD3 and CD28", "value": "no effect"}, {"measurement": "KU-55933 concentration (as low as) that induced T cell apoptosis", "setting": "[1]; [10]", "value": 10, "unit": "µM"}, {"measurement": "response of normal T cells exposed to anti-CD3 and anti-CD28", "setting": "[1]; exposed to KU-55933", "value": "undergo apoptosis"}, {"measurement": "frequency of T cells undergoing apoptosis with increasing concentration", "setting": "[1]; increasing KU-55933 concentration, anti-CD3 and CD28", "value": "dose dependent increase"}, {"measurement": "production of IL-2, IFN-g and IL-4 in response to alloantigen", "setting": "[2]", "value": "fail to produce these cytokines"}, {"measurement": "inhibition of other PI-3 kinase-like kinase family members", "setting": "[3]", "value": "does not inhibit"}, {"measurement": "animals surviving long-term", "setting": "[4]; recipients of splenocytes treated ex vivo with allogeneic stimulators and KU55933, given 48 hours after BMT", "value": "three out of four"}, {"measurement": "development of GVHD (time)", "setting": "[4]; recipients of unstimulated splenocytes treated with KU55933", "value": "30 to 40", "unit": "days"}, {"measurement": "ionizing-radiation-dependent phosphorylation of known ATM targets", "setting": "[5]", "value": "abrogation"}]}, {"compound": "CC(=O)N[C@@H](CS)C(=O)O", "note": "[NAC, N-acetyl cysteine]", "values": [{"measurement": "apoptosis induced in the presence of caffeine, effect of NAC", "setting": "[6]; 2 mM NAC added, 2.5 mM caffeine, anti-CD3 and CD28, normal T cells", "value": "prevented"}, {"measurement": "apoptosis induced in the presence of KU-55933, effect of NAC", "setting": "[1]; NAC added (4 mM per method), 20 μM KU-55933, anti-CD3 and CD28, normal T cells", "value": "prevented"}, {"measurement": "proliferation of Atm deficient T cells, effect of NAC", "setting": "[7]", "value": "restored the ability of Atm deficient T cells to undergo proliferation"}]}, {"compound": "Cn1c(=O)c2c(ncn2C)n(C)c1=O", "note": "[caffeine]", "values": [{"measurement": "ATM function in vitro", "setting": "[8]; 1 mM caffeine", "value": "inhibit ATM"}, {"measurement": "inhibition of ATM function", "setting": "[8]; 3 mM caffeine", "value": 50, "unit": "%"}, {"measurement": "T cells remaining annexin-V negative", "setting": "[6]; 2.5 mM caffeine, 48 and 72 hours after stimulation", "value": "only T cells which did not divide remained annexin-V negative"}, {"measurement": "effect on cell viability", "setting": "[6]; 2.5 mM caffeine, 24 hours, anti-CD3 and CD28", "value": "no effect"}, {"measurement": "caffeine concentration (as low as) that induced T cell apoptosis", "setting": "[6]; [10]", "value": 1, "unit": "mM"}, {"measurement": "response of normal T cells exposed to anti-CD3 and anti-CD28", "setting": "[6]; exposed to caffeine", "value": "undergo apoptosis"}, {"measurement": "frequency of T cells undergoing apoptosis with increasing concentration", "setting": "[6]; increasing caffeine concentration, anti-CD3 and CD28", "value": "dose dependent increase"}, {"measurement": "inhibition of ATR function", "setting": "[9]", "value": 50, "unit": "%"}]}]}
